# Measured values from patent publication US9597331B2, “Therapeutic compositions containing macitentan” (ACTELION PHARMACEUTICALS LTD, priority 2008, dated 2017).
# Tested on: pulmonary hypertensive male Wistar rats treated with monocrotaline
# Test: Acute effect on mean pulmonary arterial pressure in monocrotaline treated rats (monocrotaline model of pulmonary hypertension, variant 2)
# Format: in vivo, rat
# Settings: single administration, 25 to 30 days after monocrotaline, negative area = pressure decreases
# Protocol: Male Wistar rats are purchased from Harlan (Netherlands) and maintained under conditions in accordance with local guidelines (Basel-Landschaft cantonal veterinary office). All rats are housed in climate-controlled conditions with a 12:12 hour light:dark cycle, and had free access to chow and water. A telemetry system is implanted under anaesthesia by inhalation of 2.5% isoflurane (in 70% O2+30% N2O). Under aseptic conditions, a pressure radio-frequency transmitter is implanted into the peritoneal cavity, and a sensing catheter is inserted in the pulmonary artery. The transmitter is sutured to the abdominal musculature and the skin is closed. […]
# Four weeks after injection of MCT, the rats become pulmonary hypertensive and the respective effects of a single oral administration of Macitentan, of the compound having prostacyclin receptor (IP) agonist properties and of their combination can be evaluated on mean pulmonary arterial pressure. […]
# Mean pulmonary arterial pressure was measured over time. […] Area Under Curve (AUC) was calculated for each group of rats after the oral administration of the different treatment(s) (a positive area being found if the mean pulmonary arterial blood pressure increases and a negative area being found if the mean pulmonary arterial blood pressure decreases).
SMILES,AUC (Area Under Curve of mean pulmonary arterial pressure vs time) (NS-304 30 mg/kg per os),AUC (Area Under Curve of mean pulmonary arterial pressure vs time) (macitentan 10 mg/kg per os)
"CC(C)N(CCCCOCC(=O)NS(C)(=O)=O)c1cnc(-c2ccccc2)c(-c2ccccc2)n1 [NS-304, 2-{4-[(5,6-diphenylpyrazin-2-yl)(isopropyl)amino]butoxy}-N-(methylsulfonyl)acetamide]",−99 ± 128,
CCCNS(=O)(=O)Nc1ncnc(OCCOc2ncc(Br)cn2)c1-c1ccc(Br)cc1 [macitentan],,−381 ± 147
